The values below are quoted from earlier work in paper PMC6026185 (Scientific Reports, 2018).

The structures appear in SMILES notation.

By IC50 is commonly meant the point on the concentration scale where inhibition reaches its midpoint.

The target of one data set is T1, hNKCC1A (Homo sapiens, UniProt P55011).
T1 construct: Full-length NKCC1 (NKCC1A) comprises ~1200 amino acids; expressed in transfected cells; host or cells: Xenopus laevis oocytes injected with cRNA (pXOOM vector)
T1 sequence (P55011 1-1212): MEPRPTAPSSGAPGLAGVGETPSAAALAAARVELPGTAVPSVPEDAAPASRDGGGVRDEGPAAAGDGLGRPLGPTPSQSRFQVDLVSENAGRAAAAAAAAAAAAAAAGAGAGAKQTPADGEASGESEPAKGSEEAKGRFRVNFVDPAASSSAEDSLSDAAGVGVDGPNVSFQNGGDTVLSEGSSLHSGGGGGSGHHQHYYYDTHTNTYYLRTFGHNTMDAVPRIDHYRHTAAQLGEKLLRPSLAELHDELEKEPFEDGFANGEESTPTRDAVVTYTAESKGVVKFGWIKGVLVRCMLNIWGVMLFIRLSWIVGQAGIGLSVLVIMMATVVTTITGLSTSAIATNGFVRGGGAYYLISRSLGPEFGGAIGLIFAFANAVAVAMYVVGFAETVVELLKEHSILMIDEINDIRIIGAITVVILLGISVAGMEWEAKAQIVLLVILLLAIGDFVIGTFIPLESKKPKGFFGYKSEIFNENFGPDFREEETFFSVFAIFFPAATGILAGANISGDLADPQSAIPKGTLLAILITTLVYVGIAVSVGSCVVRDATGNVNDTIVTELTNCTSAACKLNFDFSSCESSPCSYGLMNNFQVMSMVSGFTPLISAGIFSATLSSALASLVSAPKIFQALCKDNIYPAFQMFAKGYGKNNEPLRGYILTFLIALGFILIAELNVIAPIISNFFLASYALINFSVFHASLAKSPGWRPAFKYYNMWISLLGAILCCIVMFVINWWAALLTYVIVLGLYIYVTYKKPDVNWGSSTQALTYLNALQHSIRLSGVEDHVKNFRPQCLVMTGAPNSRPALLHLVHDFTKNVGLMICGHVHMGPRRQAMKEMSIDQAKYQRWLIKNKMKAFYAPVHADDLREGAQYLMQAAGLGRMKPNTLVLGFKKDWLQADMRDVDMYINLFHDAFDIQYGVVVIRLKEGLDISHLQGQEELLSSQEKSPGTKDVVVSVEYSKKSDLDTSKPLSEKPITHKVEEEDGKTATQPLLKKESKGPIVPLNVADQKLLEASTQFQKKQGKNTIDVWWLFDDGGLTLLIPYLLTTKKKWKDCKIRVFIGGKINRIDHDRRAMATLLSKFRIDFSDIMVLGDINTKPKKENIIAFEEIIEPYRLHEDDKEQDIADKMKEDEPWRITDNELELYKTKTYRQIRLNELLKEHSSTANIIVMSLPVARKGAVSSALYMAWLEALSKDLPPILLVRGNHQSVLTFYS
Set-up: method as in ref Payne et al.[57]; Isenring et al.[58]; Plata et al.[59]; Carota et al.[56]; Lykke et al.[60]; Lykke et al.[29]. The following applies: Xenopus oocytes; activated state; ref Payne et al.[57]; Isenring et al.[58]; Plata et al.[59]; Carota et al.[56]; Lykke et al.[60]; Lykke et al.[29]; read-out: IC50 (µM) NKCC1 (hA); cited from earlier work.

The subject of the next data set is hNKCC2 isoform B. The conditions noted are these: Xenopus oocytes; ref Payne et al.[57]; Isenring et al.[58]; Plata et al.[59]; Carota et al.[56]; Lykke et al.[60]; Lykke et al.[29]; read-out: IC50 (µM) NKCC2 (hB); cited from earlier work.
In another data set the test system is mNKCC2 isoform A. On the set-up: method as in ref Payne et al.[57]; Isenring et al.[58]; Plata et al.[59]; Carota et al.[56]; Lykke et al.[60]; Lykke et al.[29]. The conditions noted are these: Xenopus oocytes; ref Payne et al.[57]; Isenring et al.[58]; Plata et al.[59]; Carota et al.[56]; Lykke et al.[60]; Lykke et al.[29]; read-out: IC50 (µM) NKCC2 (mA); cited from earlier work.

The test system of a further data set is hNKCC2 isoform A. The conditions noted are these: Xenopus oocytes; ref Payne et al.[57]; Isenring et al.[58]; Plata et al.[59]; Carota et al.[56]; Lykke et al.[60]; Lykke et al.[29]; read-out: IC50 (µM) NKCC2 (hA); cited from earlier work.

`CCCCNc1cc(C(=O)O)cc(S(N)(=O)=O)c1Oc1ccccc1` [Bumetanide]: the IC50 at hNKCC1A was 0.68 µM; in the data set with hNKCC2 isoform B, 0.22 µM; in the data set with mNKCC2 isoform A, 2 µM; with hNKCC2 isoform A, 0.54 to 4 µM.
